For one data set, the target named is cIAP-2 (Homo sapiens, UniProt Q13489). Nature of the data set: FP-based competitive binding assay for cIAP-2. To be noted: relative to compound 2.
The target in a further data set is XIAP BIR3 (Homo sapiens, UniProt P98170). Put plainly: Competitive fluorescence polarization-based XIAP binding assay. To be noted: relative to compound 2. A general note: In fluorescence polarisation assays a small probe gives low polarisation when free and higher when bound to something large.
For data set [1], the system named is MDA-MB-231 cancer cell line. To be noted: within 24-hour treatment.
Another data set in a line: in vivo. To be noted: rat, po.
The next data set can be described thus: Aqueous solubility. The class given is physicochemical.

cIAP-2, sequence (Q13489 whole entry): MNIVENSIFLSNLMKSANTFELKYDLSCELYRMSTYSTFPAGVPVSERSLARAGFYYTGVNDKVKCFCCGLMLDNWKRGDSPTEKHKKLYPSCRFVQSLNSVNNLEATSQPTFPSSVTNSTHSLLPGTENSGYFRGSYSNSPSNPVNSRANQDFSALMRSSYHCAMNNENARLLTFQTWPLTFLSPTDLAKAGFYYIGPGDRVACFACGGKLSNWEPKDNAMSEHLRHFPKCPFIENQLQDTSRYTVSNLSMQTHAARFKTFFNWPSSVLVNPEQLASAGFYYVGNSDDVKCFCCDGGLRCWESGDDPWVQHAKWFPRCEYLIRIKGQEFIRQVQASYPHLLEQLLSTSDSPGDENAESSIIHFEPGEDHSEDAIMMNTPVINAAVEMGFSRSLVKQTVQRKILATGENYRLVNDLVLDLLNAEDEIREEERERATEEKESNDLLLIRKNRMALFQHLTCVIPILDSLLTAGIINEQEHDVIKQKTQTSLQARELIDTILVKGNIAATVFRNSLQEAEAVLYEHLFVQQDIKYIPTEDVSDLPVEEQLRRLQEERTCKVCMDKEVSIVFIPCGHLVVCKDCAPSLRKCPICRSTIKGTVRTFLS
XIAP BIR3, sequence (P98170 241-356 limits assumed): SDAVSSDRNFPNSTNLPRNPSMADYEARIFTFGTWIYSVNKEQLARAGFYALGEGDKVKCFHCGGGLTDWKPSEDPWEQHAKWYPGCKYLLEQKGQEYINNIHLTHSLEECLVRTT

Consider `CN[C@@H](C)C(=O)N[C@H]1CN(Cc2ccccc2)CC[C@H]2CC[C@@H](C(=O)NC(c3ccccc3)c3ccccc3)N2C1=O` [Compound 4, (5S,8S,10aR)-N-benzhydryl-3-benzyl-5-((S)-2-(methylamino)propanamido)-6-oxodeca-hydropyrrolo[1,2-a][1,5]diazocine-8-carbox-amide], for which the “times weaker than 2 in binding to cIAP-2” value at cIAP-2 was 2-3 times. Besides, at XIAP BIR3, the “times weaker than compound 2 in binding to XIAP BIR3” value was 4-17 times.

What is called AUC(0-inf) is the area under the concentration-time curve extrapolated to infinity. As to `CN[C@@H](C)C(=O)N[C@H]1CN(C(=O)Cc2ccccc2)CC[C@H]2CC[C@@H](C(=O)NC(c3ccccc3)c3ccccc3)N2C1=O` [Compound 6, (5S,8S,10aR)-N-Benzhydryl-5-((S)-2-(methyl-amino)propanamido)-6-oxo-3-(2-phenyl-acetyl)decahydro pyrrolo[1,2-a][1,5]diazo-cine-8-carboxamide], the “concentration that effectively induces apoptosis” value in data set [1] stood at 100 nM. The AUC(0-inf) in the data set “in vivo” (30 mg/kg) came out at 1980 ± 614 ng·h/mL. Moreover, the “aqueous solubility (in words)” value in the data set “Aqueous solubility” is given as “excellent aqueous solubility”.

In the case of `CN[C@@H](C)C(=O)N[C@H]1CN(C)CC[C@H]2CC[C@@H](C(=O)NC(c3ccccc3)c3ccccc3)N2C1=O` [Compound 3, (5S,8S,10aR)-N-benzhydryl-3-methyl-5-((S)-2-(methylamino)propanamido)-6-oxodeca-hydro pyrrolo[1,2-a][1,5]diazocine-8-carbox-amide], the “times weaker than 2 in binding to cIAP-2” value on cIAP-2 was 2-3 times. The “times weaker than compound 2 in binding to XIAP BIR3” value on XIAP BIR3 is on record as 4-17 times.

The compound `CN[C@@H](C)C(=O)N[C@H]1CCCC[C@H]2CC[C@@H](C(=O)NC(c3ccccc3)c3ccccc3)N2C1=O` [Compound 1] registered an AUC(0-inf) in the data set “in vivo” (25 mg/kg) of 482 ± 92 ng·h/mL.

Source of the values: PMC2679375 (Journal of medicinal chemistry, 2008).
